Data on 34 compounds can be found in patent US5185338A, “Medicament for treating cerebral insufficiency diseases, novel 2-(1-piperazinyl)-4-phenylcycloalkanopyrimidine derivatives, and process for the production thereof” (Dainippon Pharmaceutical Co., Ltd., priority 1989, dated 1993).

Each structure is given as a SMILES string.

Common to all, as to type: in vivo, mice (Std-ddY strain)
Assay [1] relates to scopolamine-induced hypermotility. Kind of assay: Antagonistic effect on scopolamine-induced hypermotility. As to conditions: Mus musculus, po, orally, scopolamine hydrobromide 1 mg/kg i.p., complete antagonism to motility level of non-dosed animals=100%, read-out: Inhibitory ratio (% antagonism of scopolamine-induced hypermotility). The procedure:
Antagonistic effect on scopolamine-induced hypermotility:
A test compound was orally administered to each mouse, and 90 minutes after the administration, each one test animal was placed within a test cage (25×35×30 cm). After 30 minutes, scopolamine hydrobromide (1 mg/kg) was intraperitoneally administered to the mice and then the motility was measured with Animex activity meter for 30 minutes. The effect of test compounds was expressed as % antagonism (complete antagonism to the motility level of non-dosed animals=100%).

The test system of assay [2] is brain serotonin metabolite, 5-hydroxyindole-3-acetic acid (5-HIAA). The assay is described as follows: Increasing effect on concentration of brain serotonin metabolite (5-HIAA). As to conditions: Mus musculus, 2 h, two hours after treatment, 5-HIAA level of non-dosed animals=100%. From the text:
Increasing effect on concentration of brain serotonin metabolite:
A group of 5 male mice (Std-ddY strain, 25-30 g) was used for examining effect of the test compounds on concentration of a brain serotonin metabolite, 5-hydroxyindole-3-acetic acid (5-HIAA).
Mice were killed by decapitation two hours after the treatment with the test compounds. Brains were quickly taken out, homogenized in 1N formic acid-acetone solution, and centrifuged in a refrigerated ultracentrifuge. The supernatant was evaporated by blowing with N2 gas, and then, the residue was again dissolved in 0.01N acetic acid, and served for determining 5-HIAA concentration by high performance liquid chromatography with electrochemical detection. The effect of the test compounds on 5-HIAA concentration was shown as % of control (5-HIAA level of non-dosed animals=100%).

Assay [3] relates to reserpine-induced hypothermia. Kind of assay: Anti-reserpine effect (reserpine-induced hypothermia). To be noted: 100 mg/kg orally; reserpine 5 mg/kg s.c.; rectal temperature at 4 hours; complete inhibition=100%. The procedure:
A group of 5 male mice (Std-ddY strain, 22-25 g) was used for examining the antagonistic effect of the test compounds on reserpine-induced hypothermia, which is known as a screening method for the antidepressant drug.
Reserpine (5 mg/kg) was subcutaneously administered to the mice and further a test compound was orally administered thereto. Four hours after the administration, rectal temperature of the mice was measured. The effect of the test compounds was estimated by % inhibition (complete inhibition to the hypothermia by reserpine in non-dosed animals=100%).

Assay [4] has as its system scopolamine-induced deficit of spontaneous alternation behavior. The assay is described as follows: Improving effect on scopolamine-induced deficit of spontaneous alternation behavior (T-maze). To be noted: scopolamine hydrobromide 1 mg/kg, non-dosed mice=100%. From the text:
Improving effect on scopolamine-induced deficit of spontaneous alternation behavior:
A group of 15-25 male mice (Std-ddY strain, 22-28 g) was used for evaluating effect of the test compounds on scopolamine-induced deficit of spontaneous alternation in a T-maze, which is a known animal model of memory impairment due to hypofunction of the cholinergic nervous system. The T-maze used consists of a stem and two arms which are 25 cm long, 5 cm wide and 10 cm high. The first 10 cm of the stem and last 10 cm of each arm are divided by sliding doors into start and goal boxes.
A test compound and scopolamine hydrobromide (1 mg/kg) were intraperitoneally administered to each mouse, and after 30 minutes a test of spontaneous alternation task in the T-maze was continuously repeated for 8 trials. Commonly, naive mice alternate each (right and left) goal box in turn, but scopolamine-treated animals tend to enter the same goal box repeatedly. The effect of the test compounds was expressed as % improvement (complete improvement to the alternation level of non-dosed mice=100%).

Assay [5] relates to cycloheximide-induced amnesia of passive avoidance response. Kind of assay: Improving effect on cycloheximide-induced amnesia of passive avoidance response. As to conditions: cycloheximide 60 mg/kg s.c., retention trial at 24 hours, non-dosed animals=100%. From the text:
Improving effect on cycloheximide-induced amnesia of passive avoidance response:
Anti-amnesic effect of the test compounds was examined using mice given cycloheximide which is a known amnesia-inducing agent.
A group of 15-20 male mice (Std-ddY strain, 27-33 g) was subjected to training and retention trials for a passive avoidance task in a step-down apparatus (30×30×50 cm) with a grid floor and a wooden platform (4×4×4 cm) in a center of the floor. In the training trial, each mouse was first placed on the platform, and when the mouse stepped down on the grid floor, an electric shock (1 Hz, 0.5 sec, 60 VDC) was delivered to the feet for 15 seconds. Immediately after the training trial, cycloheximide (60 mg/kg, s.c.) and a test compound (i.p.) were administered. The retention trial was carried out 24 hours thereafter, and the time from placing again each mouse on the platform until stepping down on the grid floor (step-down latency) was measured. The step-down latency in the retention trial was markedly shortened by treatment of cycloheximide (amnesia). The effect of test compounds was assessed by % improvement (complete improvement to the latency level of non-dosed animals=100%).

On to `CC1CCc2nc(N3CCN(C)CC3)nc(-c3ccc(F)cc3)c2C1` (stereo not shown) [Ex. 41], for which the inhibition in vivo at 30 mg/kg in assay [1] stood at 60.8%.
The same measure, in the same setting: with `CCN1CCN(c2nc3c(c(-c4ccc(OC)cc4)n2)CCC3)CC1` [Ex. 24] the figure was 72.5%.
Same read-out and setting: with `OCCN1CCN(c2nc3c(c(-c4ccc(Cl)cc4)n2)CCCC3)CC1` [Ex. 34] the figure was 50.2%.
On the same count and under the same terms, the value for `COc1ccc(-c2nc(N3CCN(C)CC3)nc3c2CCC3)cc1` [Ex. 23] was 52.4%.
With `OCCN1CCN(c2nc3c(c(-c4ccccc4)n2)CCCC3)CC1` [Ex. 27], the inhibition in vivo at 30 mg/kg in assay [1] amounted to 42%. The response vs control in vivo at 100 mg/kg in assay [2] was determined as 131%. For the same compound, the “Inhibitory ratio (% inhibition of reserpine-induced hypothermia)” value in assay [3] is given as 46%.
For the compound `CCN1CCN(c2nc3c(c(-c4ccccc4)n2)CCCCC3)CC1` [Ex. 16], the inhibition in vivo at 30 mg/kg in assay [1] turned out to be 54.2%.
The same measure, in the same setting: the value for `CC1CCc2nc(N3CCNCC3)nc(-c3ccc(F)cc3)c2C1` (stereo not shown) [Ex. 40] was 64.5%; that for `Fc1ccc(-c2nc(N3CCN(Cc4ccccc4)CC3)nc3c2CCCCC3)cc1` [Ex. 38] was 81.6%; that for `CN1CCN(c2nc3c(c(-c4ccc(Cl)cc4)n2)CCCC3)CC1` [Ex. 32] was 62.6%.
In the case of `Fc1ccc(-c2nc(N3CCN(C4CCCC4)CC3)nc3c2CCC3)cc1` [Ex. 12], in assay [1], the inhibition in vivo at 30 mg/kg is 80.9%.
Still for that read-out and setting: the value for `CCCN1CCN(c2nc3c(c(-c4ccc(F)cc4)n2)CCC3)CC1` [Ex. 13, 2-(4-n-propyl-1-piperazinyl)-4-(4-fluorophenyl)-6,7-dihydro-5H-cyclopentapyrimidine] was 97.6%.
Regarding `CN1CCN(c2nc3c(c(-c4ccccc4)n2)CCCC3)CC1` [Ex. 25], the inhibition in vivo at 10 mg/kg in assay [1] is 67.2%. In assay [2], the response vs control in vivo at 100 mg/kg amounted to 142%. Moreover, the “Inhibitory ratio (% inhibition of reserpine-induced hypothermia)” value in assay [3] is listed as 63%.
Take `Fc1ccc(-c2nc(N3CCN(Cc4ccccc4)CC3)nc3c2CCCC3)cc1` [Ex. 31]: the inhibition in vivo at 10 mg/kg in assay [1] amounted to 61.1%.
Regarding `OCCN1CCN(c2nc3c(c(-c4ccc(F)cc4)n2)CCCC3)CC1` [Ex. 30], the inhibition in vivo at 30 mg/kg in assay [1] worked out at 75.7%. Moreover, the response vs control in vivo at 100 mg/kg in assay [2] turned out to be 137%. Besides, the “Inhibitory ratio (% inhibition of reserpine-induced hypothermia)” value in assay [3] is 67%.
Take `CCN1CCN(c2nc3c(c(-c4ccc(F)cc4)n2)CCC3)CC1` [Ex. 5]: in assay [1], the inhibition in vivo at 30 mg/kg stood at 81.4%. The response vs control in vivo at 100 mg/kg in assay [2] worked out at 161%.
On to `Fc1ccc(-c2nc(N3CCNCC3)nc3c2CCCC3)cc1` [Ex. 14, 2-(1-piperazinyl)-4-(4-fluoro-phenyl)-5,6,7,8-tetrahydroquinazoline], for which the “Improvement of scopolamine-induced deficit of spontaneous alternation” value in assay [4] (1.0 mg/kg i.p.) worked out at 40.7%. Moreover, the inhibition in vivo at 3 mg/kg in assay [1] was 55.2%. For the same compound, in assay [2], the response vs control in vivo at 100 mg/kg came to 154%. For the same compound, the “Improvement of cycloheximide-induced amnesia (step-down latency)” value in assay [5] (2.0 mg/kg i.p.) is recorded as 52.5%. The “Inhibitory ratio (% inhibition of reserpine-induced hypothermia)” value in assay [3] is recorded as 100%.
On to `CCN1CCN(c2nc3c(c(-c4ccccc4)n2)CCCCCC3)CC1` [Ex. 17], for which, in assay [1], the inhibition in vivo at 30 mg/kg is 72.5%.
Still for that read-out and setting: the value for `CCN1CCN(c2nc3c(c(-c4ccc(Cl)cc4)n2)CCCC3)CC1` [Ex. 33] was 42.3%.
`CN1CCN(c2nc3c(c(-c4ccc(F)cc4)n2)CCC3)CC1` [Ex. 4]: in assay [1], the inhibition in vivo at 10 mg/kg was 66%. Also, the response vs control in vivo at 100 mg/kg in assay [2] came out at 122%.
Regarding `CCN1CCN(c2nc3c(c(-c4ccc(F)cc4)n2)CCCCC3)CC1` [Ex. 8], in assay [1], the inhibition in vivo at 10 mg/kg was determined as 80%.
Consider `CCN1CCN(c2nc3c(c(-c4ccccc4)n2)CCCC3)CC1` [Ex. 26], for which the inhibition in vivo at 30 mg/kg in assay [1] worked out at 59.6%. In addition, in assay [3], the “Inhibitory ratio (% inhibition of reserpine-induced hypothermia)” value is recorded as 100%.
With `c1ccc(-c2nc(N3CCNCC3)nc3c2CCC3)cc1` [Ex. 3, 2-(1-Piperazinyl)-4-phenyl-6,7-dihydro-5H-cyclopentapyrimidine], in assay [4] (2.0 mg/kg i.p.), the “Improvement of scopolamine-induced deficit of spontaneous alternation” value worked out at 45.8%. For the same compound, in assay [1], the inhibition in vivo at 3 mg/kg worked out at 68%. Besides, the “Improvement of cycloheximide-induced amnesia (step-down latency)” value in assay [5] (0.5 mg/kg i.p.) is 34.4%; in assay [5] (10.0 mg/kg i.p.), 52.1%.
Turning to `c1ccc(CN2CCN(c3nc4c(c(-c5ccccc5)n3)CCCCC4)CC2)cc1` [Ex. 37], the inhibition in vivo at 30 mg/kg in assay [1] came to 62.9%.
On the same count and under the same terms, with `CN1CCN(c2nc3c(c(-c4cccc(F)c4)n2)CCC3)CC1` [Ex. 21] the figure was 70.5%.
Turning to `Fc1ccc(-c2nc(N3CCN(Cc4ccccc4)CC3)nc3c2CCC3)cc1` [Ex. 19], the inhibition in vivo at 3 mg/kg in assay [1] came to 64.4%.
`c1ccc(CN2CCN(c3nc4c(c(-c5ccccc5)n3)CCC4)CC2)cc1` [Ex. 18]: the inhibition in vivo at 30 mg/kg in assay [1] was found to be 54.4%.
In the case of `Fc1ccc(-c2nc(N3CCN(c4ccccc4)CC3)nc3c2CCC3)cc1` [Ex. 20], the inhibition in vivo at 30 mg/kg in assay [1] came out at 35.2%.
On the same count and under the same terms, the value for `O=C(CCCN1CCN(c2nc3c(c(-c4ccc(F)cc4)n2)CCC3)CC1)c1ccc(F)cc1` [Ex. 46, 2-[4-[3-(4-fluorobenzoyl)propyl]-1-piperazinyl]-4-(4-fluorophenyl)-6,7-dihydro-5H-cyclopentapyrimidine] was 100%.
With `CCN1CCN(c2nc3c(c(-c4ccc(F)cc4)n2)CCCC3)CC1` [Ex. 29], the inhibition in vivo at 30 mg/kg in assay [1] worked out at 59.1%. Also, in assay [2], the response vs control in vivo at 100 mg/kg worked out at 149%.
Consider `Fc1ccc(-c2nc(N3CCN(c4ccccn4)CC3)nc3c2CCC3)cc1` [Ex. 39], for which the inhibition in vivo at 30 mg/kg in assay [1] was 55.6%.
On the same count and under the same terms, with `O=C(c1ccco1)N1CCN(c2nc3c(c(-c4ccc(F)cc4)n2)CCC3)CC1` [Ex. 45, 2-[4-(2-furoyl)-1-piperazinyl]-4-(4-fluorophenyl)-6,7-dihydro-5H-cyclopentapyrimidine] the figure was 60.4%; with `CC1CCc2nc(N3CCN(CCO)CC3)nc(-c3ccc(F)cc3)c2C1` (stereo not shown) [Ex. 43], 64.2%.
For `OCCN1CCN(c2nc3c(c(-c4ccc(F)cc4)n2)CCC3)CC1` [Ex. 6], the inhibition in vivo at 30 mg/kg in assay [1] came to 64.5%. Also, the response vs control in vivo at 100 mg/kg in assay [2] was determined as 119%.
Consider `CCN1CCN(c2nc3c(c(-c4ccc(F)cc4)n2)CC(C)CC3)CC1` (stereo not shown) [Ex. 42], for which the inhibition in vivo at 30 mg/kg in assay [1] was 71%.
